Experimental data from the CheMixHub viscosity set.

Test: xn = mol fraction of the nth substance listed

CCCC(C)C + CCCCCCCCCCCC
298 K, 101.33 kPa
Settings	viscosity [mPa·s]
x1 = 0.1004	1.205
x1 = 0.2007	1.075
x1 = 0.3018	0.939
x1 = 0.4027	0.8181
x1 = 0.5008	0.7124
x1 = 0.6002	0.6097
x1 = 0.6996	0.5148
x1 = 0.8002	0.4229
x1 = 0.9003	0.3443

CC(O)C(=O)O (stereo unspecified) + C[C@H](N)C(=O)O
101 kPa, x2 = 0.5
Settings	viscosity [mPa·s]
298.15 K	23710
318.15 K	3481

CCCCC(CC)CN (stereo unspecified) + COCCOCCOCCOC
viscosity [mPa·s], 101.33 kPa
Settings	x2 = 0.0746	x2 = 0.153	x2 = 0.237	x2 = 0.326	x2 = 0.42	x2 = 0.521	x2 = 0.629	x2 = 0.744	x2 = 0.867
303.2 K	1.02	1.05	1.13	1.19	1.25	1.32	1.39	1.54	1.64
313.2 K	0.88	0.9	0.97	1.01	1.06	1.11	1.16	1.31	1.39

CCCCn1cc[n+](C)c1.F[P-](F)(F)(F)(F)F + Cc1ccccc1
Settings	viscosity [mPa·s]
310.65 K, 101 kPa, x1 = 0.8	31.65

Clc1ccccc1 + CCCCOC(C)=O
viscosity [mPa·s], 101 kPa
Settings	298.15 K	308.15 K
x2 = 0.0484	0.744	0.669
x2 = 0.1504	0.723	0.651
x2 = 0.2515	0.706	0.636
x2 = 0.349	0.692	0.624
x2 = 0.4447	0.682	0.614
x2 = 0.4933	0.678	0.61
x2 = 0.5503	0.674	0.605
x2 = 0.6502	0.669	0.599
x2 = 0.7514	0.667	0.595
x2 = 0.8498	0.668	0.593
x2 = 0.9417	0.671	0.593

CCCCn1cc[n+](C)c1.F[P-](F)(F)(F)(F)F + ClC(Cl)Cl
Settings	viscosity [mPa·s]
298.15 K, 101 kPa, x2 = 0.0857	195

Clc1ccccc1 + COC(C)=O
viscosity [mPa·s], 101 kPa
Settings	298.15 K	308.15 K
x2 = 0.0395	0.734	0.662
x2 = 0.1406	0.685	0.619
x2 = 0.2347	0.642	0.581
x2 = 0.3286	0.602	0.547
x2 = 0.4168	0.566	0.516
x2 = 0.4647	0.548	0.5
x2 = 0.5282	0.525	0.479
x2 = 0.6291	0.491	0.448
x2 = 0.7341	0.458	0.418
x2 = 0.8394	0.427	0.39
x2 = 0.9331	0.401	0.367

COCCOCCOCCOCCOC + CCCC(C)O
viscosity [mPa·s], 101 kPa
Settings	x1 = 0.0055	x1 = 0.0094	x1 = 0.0147	x1 = 0.0256	x1 = 0.0397	x1 = 0.0606	x1 = 0.0791	x1 = 0.0929	x1 = 0.1008
298.15 K	3.301	3.26	3.223	3.071	2.91	2.75	2.641	2.58	2.55
308.15 K	2.291	2.274	2.25	2.203	2.117	2.046	1.977	1.94	1.91
318.15 K	1.658	1.638	1.631	1.622	1.575	1.533	1.524	1.497	1.48

CCCC(C)C + CCCCCCCCCCCCCC
298 K, 101.33 kPa
Settings	viscosity [mPa·s]
x1 = 0.1041	1.795
x1 = 0.2003	1.595
x1 = 0.3021	1.362
x1 = 0.4053	1.136
x1 = 0.5024	0.9502
x1 = 0.6012	0.7806
x1 = 0.7022	0.6276
x1 = 0.8003	0.4899
x1 = 0.8985	0.3762
